Measurements from patent US20240376099A1, “COMPOUNDS AND COMPOSITIONS AS INHIBITORS OF ENDOSOMAL TOLL-LIKE RECEPTORS” (Novartis AG, priority 2016, published 2024).

Molecular target: T1, TLR7 (Homo sapiens, UniProt Q9NYK1)
T1 construct: Fresh blood was collected from normal human donors; endogenous in cells; host or cells: human PBMCs from fresh donor blood
T1 sequence (Q9NYK1 27-1049): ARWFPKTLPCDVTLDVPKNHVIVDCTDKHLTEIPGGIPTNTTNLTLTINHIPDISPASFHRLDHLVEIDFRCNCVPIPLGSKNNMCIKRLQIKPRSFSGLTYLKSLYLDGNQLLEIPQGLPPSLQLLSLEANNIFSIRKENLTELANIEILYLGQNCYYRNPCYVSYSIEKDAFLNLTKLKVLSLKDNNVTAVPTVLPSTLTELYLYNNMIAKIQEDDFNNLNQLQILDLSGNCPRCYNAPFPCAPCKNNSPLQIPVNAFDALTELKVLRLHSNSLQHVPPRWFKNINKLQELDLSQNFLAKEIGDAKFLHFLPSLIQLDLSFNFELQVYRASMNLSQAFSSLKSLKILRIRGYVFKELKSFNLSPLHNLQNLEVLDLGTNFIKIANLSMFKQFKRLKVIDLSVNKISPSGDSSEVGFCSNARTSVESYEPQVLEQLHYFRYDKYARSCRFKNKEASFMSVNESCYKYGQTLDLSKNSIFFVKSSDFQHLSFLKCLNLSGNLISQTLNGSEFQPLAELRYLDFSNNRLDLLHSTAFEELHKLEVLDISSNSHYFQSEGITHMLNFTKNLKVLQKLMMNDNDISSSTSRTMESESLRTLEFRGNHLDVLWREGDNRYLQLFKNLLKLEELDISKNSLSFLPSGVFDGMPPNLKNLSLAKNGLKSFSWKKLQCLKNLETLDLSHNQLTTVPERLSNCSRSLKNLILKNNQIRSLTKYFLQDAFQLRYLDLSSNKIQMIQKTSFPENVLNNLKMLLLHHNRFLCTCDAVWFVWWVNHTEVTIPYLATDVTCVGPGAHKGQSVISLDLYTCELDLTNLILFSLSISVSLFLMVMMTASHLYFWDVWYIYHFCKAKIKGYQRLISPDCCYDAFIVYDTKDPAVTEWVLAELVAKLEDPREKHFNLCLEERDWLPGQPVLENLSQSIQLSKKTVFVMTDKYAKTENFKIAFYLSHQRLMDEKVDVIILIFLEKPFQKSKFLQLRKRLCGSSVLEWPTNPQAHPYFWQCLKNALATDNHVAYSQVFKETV
Assay: huPBMC TLR7 Antagonist IFNα Assay
Type: cell-based
Details: human PBMCs stimulated with ssRNA40 10 μg/mL (DOTAP), 14-16 hrs; IFNα2b AlphaLISA read-out
Procedure, shortened: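 Human PBMCs from fresh donor blood (150,000 cells/well) stimulated 14–16 h at 37 °C with DOTAP-complexed ssRNA40 (final 1 μg/ml for TLR8, 10 μg/mL for TLR7) or ODN2216 (final 0.3 μM, TLR9), 0.25% DMSO, ten-point 1/3 compound dilutions. Supernatant IL-6 read by HTRF (TLR8); IFNα by IFNα2b AlphaLISA (TLR7/TLR9).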

In order of rising IC50:
1. Cc1cc(N2CCc3c(c(C)nn3CC34CCC(N5CCCC5)(CC3)CC4)C2)c2cnn(C)c2n1 [Compound No. 58, 5-(1,6-dimethyl-1H-pyrazolo[3,4-b]pyridin-4-yl)-3-methyl-1-((4-(pyrrolidin-1-yl)bicyclo[2.2.2]octan-1-yl)methyl)-4,5,6,7-tetrahydro-1H-pyrazolo[4,3-c]pyridine]  3 nM
2. Cc1cc(N2CCc3c(c(C)nn3CC34CCC(N5CCOCC5)(CC3)CC4)C2)c2cnn(C)c2n1 [Compound No. 59, 4-(4-((5-(1,6-dimethyl-1H-pyrazolo[3,4-b]pyridin-4-yl)-3-methyl-4,5,6,7-tetrahydro-1H-pyrazolo[4,3-c]pyridin-1-yl)methyl)bicyclo[2.2.2]octan-1-yl)morpholine]  4 nM
3. Cc1cc(N2CCc3c(c(C)nn3CC34CCC(NC5CCC5)(CC3)CC4)C2)c2cnn(C)c2n1 [compound 54, N-cyclobutyl-4-((5-(1,6-dimethyl-1H-pyrazolo[3,4-b]pyridin-4-yl)-3-methyl-4,5,6,7-tetrahydro-1H-pyrazolo[4,3-c]pyridin-1-yl)methyl)bicyclo[2.2.2]octan-1-amine]  4 nM
4. Cc1cc(N2CCc3c(c(C)nn3CC34CCC(N5CCC5)(CC3)CC4)C2)c2cnn(C)c2n1 [compound 64, 1-((4-(azetidin-1-yl)bicyclo[2.2.2]octan-1-yl)methyl)-5-(1,6-dimethyl-1H-pyrazolo[3,4-b]pyridin-4-yl)-3-methyl-4,5,6,7-tetrahydro-1H-pyrazolo[4,3-c]pyridine]  4 nM
5. Cc1cc(N2CCc3c(c(C)nn3CC34CCC(NC(C)C)(CC3)CC4)C2)c2cnn(C)c2n1 [compound 55, 4-((5-(1,6-dimethyl-1H-pyrazolo[3,4-b]pyridin-4-yl)-3-methyl-4,5,6,7-tetrahydro-1H-pyrazolo[4,3-c]pyridin-1-yl)methyl)-N-isopropylbicyclo[2.2.]octan-1-amine]  5 nM
6. CCOCCNC12CCC(Cn3nc(C)c4c3CCN(c3cc(C)nc5c3cnn5C)C4)(CC1)CC2 [compound 71, 4-((5-(1,6-dimethyl-1H-pyrazolo[3,4-b]pyridin-4-yl)-3-methyl-4,5,6,7-tetrahydro-1H-pyrazolo[4,3-c]pyridin-1-yl)methyl)-N-(2-ethoxyethyl)bicyclo[2.2.2]octan-1-amine]  5 nM
7. CNC12CCC(Cn3nc(C)c4c3CCN(c3cc(C)nc5c3cnn5C)C4)(CC1)CC2 [Compound No. 50, 4-((5-(1,6-dimethyl-1H-pyrazolo[3,4-b]pyridin-4-yl)-3-methyl-4,5,6,7-tetrahydro-1H-pyrazolo[4,3-c]pyridin-1-yl)methyl)-N-methylbicyclo[2.2.2]octan-1-amine]  6 nM
8. Cc1cc(N2CCc3c(c(C)nn3CC34CCC(NC(=O)OC5(C)CC5)(CC3)CC4)C2)c2cnn(C)c2n1 [Compound No. 51, 1-methylcyclopropyl (4-((5-(1,6-dimethyl-1H-pyrazolo[3,4-b]pyridin-4-yl)-3-methyl-4,5,6,7-tetrahydro-1H-pyrazolo[4,3-c]pyridin-1-yl)methyl)bicyclo[2.2.2]octan-1-yl)carbamate]  7 nM
9. Cc1cc(N2CCc3c(c(C)nn3CC34CCC(NC(C)CO)(CC3)CC4)C2)c2cnn(C)c2n1 (stereo not shown) [compound 56, 2-((4-((5-(1,6-dimethyl-1H-pyrazolo[3,4-b]pyridin-4-yl)-3-methyl-4,5,6,7-tetrahydro-1H-pyrazolo[4,3-c]pyridin-1-yl)methyl)bicyclo[2.2.2]octan-1-yl)amino)propan-1-ol]  7 nM
10. CCNC12CCC(Cn3nc(C)c4c3CCN(c3cc(C)nc5c3cnn5C)C4)(CC1)CC2 [compound 57, 4-((5-(1,6-dimethyl-1H-pyrazolo[3,4-b]pyridin-4-yl)-3-methyl-4,5,6,7-tetrahydro-1H-pyrazolo[4,3-c]pyridin-1-yl)methyl)-N-ethylbicyclo[2.2.]octan-1-amine]  7 nM
11. COCCNC12CCC(Cn3nc(C)c4c3CCN(c3cc(C)nc5c3cnn5C)C4)(CC1)CC2 [Compound No. 69, 4-((5-(1,6-dimethyl-1H-pyrazolo[3,4-b]pyridin-4-yl)-3-methyl-4,5,6,7-tetrahydro-1H-pyrazolo[4,3-c]pyridin-1-yl)methyl)-N-(2-methoxyethyl)bicyclo[2.2.2]octan-1-amine]  9 nM
12. Cc1cc(N2CCc3c(c(C)nn3CC34CCC(N(C)C5COC5)(CC3)CC4)C2)c2cnn(C)c2n1 [Compound No. 77, N-(4-((5-(1,6-dimethyl-1H-pyrazolo[3,4-b]pyridin-4-yl)-3-methyl-4,5,6,7-tetrahydro-1H-pyrazolo[4,3-c]pyridin-1-yl)methyl)bicyclo[2.2.2]octan-1-yl)-N-methyloxetan-3-amine]  10 nM
13. Cc1cc(N2CCc3c(c(C)nn3CC34CCC(N(C)C(=O)OC(C)(C)C)(CC3)CC4)C2)c2cnn(C)c2n1 [Compound No. 49, tert-butyl (4-((5-(1,6-dimethyl-1H-pyrazolo[3,4-b]pyridin-4-yl)-3-methyl-4,5,6,7-tetrahydro-1H-pyrazolo[4,3-c]pyridin-1-yl)methyl)bicyclo[2.2.2]octan-1-yl)(methyl)carbamate]  20 nM
14. Cc1cc(N2CCc3c(c(C)nn3CC34CCC(N)(CC3)CC4)C2)c2cnn(C)c2n1 [Compound No. 1, 4-((5-(1,6-dimethyl-1H-pyrazolo[3,4-b]pyridin-4-yl)-3-methyl-4,5,6,7-tetrahydro-1H-pyrazolo[4,3-c]pyridin-1-yl)methyl)bicyclo[2.2.2]octan-1-amine]  25 nM
15. Cc1cc(N2CCc3c(c(C)nn3CC34CCC(N)(CC3)CC4)C2)c2cn[nH]c2n1 [Compound No. 2, 4-((3-methyl-5-(6-methyl-1H-pyrazolo[3,4-b]pyridin-4-yl)-4,5,6,7-tetrahydro-1H-pyrazolo[4,3-c]pyridin-1-yl)methyl)bicyclo[2.2.2]octan-1-amine]  38 nM
16. Cc1cc(N2CCc3c(c(C)nn3CC34CCC(O)(CC3)CC4)C2)c2cnn(C)c2n1 [compound 46, 4-((5-(1,6-dimethyl-1H-pyrazolo[3,4-b]pyridin-4-yl)-3-methyl-4,5,6,7-tetrahydro-1H-pyrazolo[4,3-c]pyridin-1-yl)methyl)bicyclo[2.2.2]octan-1-ol]  56 nM
17. Cc1nn(CC23CCC(N)(CC2)CC3)c2c1CN(c1ccnc(-c3ccc(C#N)cc3)c1)CC2 [Compound No. 84, 4-(4-(1-((4-aminobicyclo[2.2.2]octan-1-yl)methyl)-3-methyl-6,7-dihydro-1H-pyrazolo[4,3-c]pyridin-5(4H)-yl)pyridin-2-yl)benzonitrile]  302 nM
18. Cc1cc(N2CCc3nn(CC45CC(N)(C4)C5)c(C)c3C2)c2cnn(C)c2n1 [compound 52, 3-((5-(1,6-dimethyl-1H-pyrazolo[3,4-b]pyridin-4-yl)-3-methyl-4,5,6,7-tetrahydro-2H-pyrazolo[4,3-c]pyridin-2-yl)methyl)bicyclo[1.1.1]pentan-1-amine]  304 nM
19. COc1ccc(Cn2ncc3c(N4CCc5c(c(C)nn5CC56CCC(N)(CC5)CC6)C4)cc(C)nc32)cc1 [Compound No. 53, 4-((5-(1-(4-methoxybenzyl)-6-methyl-1H-pyrazolo[3,4-b]pyridin-4-yl)-3-methyl-4,5,6,7-tetrahydro-1H-pyrazolo[4,3-c]pyridin-1-yl)methyl)bicyclo[2.2.2]octan-1-amine]  843 nM
